Six compounds from PubChem BioAssay AID270 (DTP/NCI, 2004) can be followed below.

Values joined by “and” are separate entries in the source; they are usually repeats but may differ in a detail not shown here. Identical values can stand only once. Inconclusive results are not listed.

The test concerns BDF1 mice, s.c. Lewis lung carcinoma, T/C %. The experiment in a line: NCI In Vivo Anticancer Drug Screen. Data for tumor model Lewis Lung Carcinoma (subcutaneous) in B6D2F1 (BDF1) mice. The method, boiled down:
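Antitumor effect in vivo is scored from survival or tumor burden, reported as treated relative to vehicle controls.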

For `O=NN(CCCl)C(=O)NC1CCCCC1`, the T/C (endpoint: median survival time, dose: 0.12 mg/kg/injection, schedule: Q08HX024 (ip), vehicle: Klucel (hydroxypropylcellulose) (HPC), higher = longer survival) was 91 % of control; the T/C (endpoint: median survival time, dose: 0.12 mg/kg/injection, schedule: Q08HX024 (ip), vehicle: saline, higher = longer survival) was 181 % of control; the T/C (endpoint: median survival time, dose: 0.25 mg/kg/injection, schedule: Q08HX024 (ip), vehicle: Klucel (hydroxypropylcellulose) (HPC), higher = longer survival) is 106 % of control and 111 % of control; the T/C (endpoint: median survival time, dose: 0.25 mg/kg/injection, schedule: Q08HX024 (ip), vehicle: saline, higher = longer survival) is 182 % of control; the T/C (endpoint: median survival time, dose: 0.5 mg/kg/injection, schedule: Q08HX024 (ip), vehicle: Klucel (hydroxypropylcellulose) (HPC), higher = longer survival) is 103 % of control and 115 % of control; the T/C (endpoint: median survival time, dose: 0.5 mg/kg/injection, schedule: Q08HX024 (ip), vehicle: saline, higher = longer survival) is 103 % of control. Also, the T/C is, setting by setting: (endpoint: median survival time, dose: 1.0 mg/kg/injection, schedule: Q08HX024 (ip), vehicle: Klucel (hydroxypropylcellulose) (HPC), higher = longer survival) 119 % of control; (endpoint: median survival time, dose: 1.0 mg/kg/injection, schedule: Q08HX024 (ip), vehicle: saline, higher = longer survival) 91 % of control; (endpoint: median survival time, dose: 2.4 mg/kg/injection, schedule: Q01DX001 (ip), vehicle: other, higher = longer survival) 120 % of control; (endpoint: median survival time, dose: 4.0 mg/kg/injection, schedule: Q01DX009 (ip), vehicle: saline with Tween-80, higher = longer survival) 112 % of control; (endpoint: median survival time, dose: 4.7 mg/kg/injection, schedule: Q01DX001 (ip), vehicle: other, higher = longer survival) 109 % of control; (endpoint: median survival time, dose: 5.0 mg/kg/injection, schedule: Q01DX001 (ip), vehicle: Klucel (hydroxypropylcellulose) (HPC), higher = longer survival) 95 % of control and 106 % of control and 123 % of control. Moreover, the T/C is 120 % of control (endpoint: median survival time, dose: 8.0 mg/kg/injection, schedule: Q01DX009 (ip), vehicle: saline with Tween-80, higher = longer survival); 105 % of control (endpoint: median survival time, dose: 9.5 mg/kg/injection, schedule: Q01DX001 (ip), vehicle: other, higher = longer survival); 86 % of control and 91 % of control and 111 % of control (endpoint: median survival time, dose: 10.0 mg/kg/injection, schedule: Q01DX001 (ip), vehicle: Klucel (hydroxypropylcellulose) (HPC), higher = longer survival); 93 % of control and 113 % of control (endpoint: median survival time, dose: 12.5 mg/kg/injection, schedule: Q01DX001 (ip), vehicle: Klucel (hydroxypropylcellulose) (HPC), higher = longer survival); 158 % of control (endpoint: median survival time, dose: 12.5 mg/kg/injection, schedule: Q01DX001 (ip), vehicle: saline with Tween-80, higher = longer survival); 150 % of control (endpoint: median survival time, dose: 18.9 mg/kg/injection, schedule: Q01DX001 (ip), vehicle: other, higher = longer survival). In addition, the T/C was 97 % of control and 115 % of control (endpoint: median survival time, dose: 20.0 mg/kg/injection, schedule: Q01DX001 (ip), vehicle: Klucel (hydroxypropylcellulose) (HPC), higher = longer survival); 108 % of control (endpoint: median survival time, dose: 25.0 mg/kg/injection, schedule: Q01DX001 (ip), vehicle: Klucel (hydroxypropylcellulose) (HPC), higher = longer survival); 111 % of control (endpoint: median survival time, dose: 27.0 mg/kg/injection, schedule: Q11DX002 (ip), vehicle: Klucel (hydroxypropylcellulose) (HPC), higher = longer survival); 94 % of control (endpoint: median survival time, dose: 32.0 mg/kg/injection, schedule: Q01DX009 (ip), vehicle: Klucel (hydroxypropylcellulose) (HPC), higher = longer survival); 102 % of control (endpoint: median survival time, dose: 33.0 mg/kg/injection, schedule: Q01DX001 (ip), vehicle: carboxymethylcellulose (CMC), higher = longer survival); 180 % of control (endpoint: median survival time, dose: 33.0 mg/kg/injection, schedule: Q06DX002 (ip), vehicle: carboxymethylcellulose (CMC), higher = longer survival). The T/C is, setting by setting: (endpoint: median survival time, dose: 33.0 mg/kg/injection, schedule: Q08DX002 (ip), vehicle: carboxymethylcellulose (CMC), higher = longer survival) 100 % of control; (endpoint: median survival time, dose: 33.0 mg/kg/injection, schedule: Q12DX002 (ip), vehicle: carboxymethylcellulose (CMC), higher = longer survival) 102 % of control; (endpoint: median survival time, dose: 37.8 mg/kg/injection, schedule: Q01DX001 (ip), vehicle: other, higher = longer survival) 160 % of control; (endpoint: median survival time, dose: 40.0 mg/kg/injection, schedule: Q11DX002 (ip), vehicle: Klucel (hydroxypropylcellulose) (HPC), higher = longer survival) 79 % of control and 97 % of control; (endpoint: median survival time, dose: 40.0 mg/kg/injection, schedule: Q11DX002 (oral), vehicle: Klucel (hydroxypropylcellulose) (HPC), higher = longer survival) 86 % of control; (endpoint: median survival time, dose: 50.0 mg/kg/injection, schedule: Q01DX001 (ip), vehicle: Klucel (hydroxypropylcellulose) (HPC), higher = longer survival) 67 % of control. Besides, the T/C by setting is: (endpoint: median survival time, dose: 50.0 mg/kg/injection, schedule: Q01DX001 (ip), vehicle: carboxymethylcellulose (CMC), higher = longer survival) 100 % of control; (endpoint: median survival time, dose: 50.0 mg/kg/injection, schedule: Q06DX002 (ip), vehicle: carboxymethylcellulose (CMC), higher = longer survival) 151 % of control; (endpoint: median survival time, dose: 50.0 mg/kg/injection, schedule: Q08DX002 (ip), vehicle: carboxymethylcellulose (CMC), higher = longer survival) 92 % of control; (endpoint: median survival time, dose: 50.0 mg/kg/injection, schedule: Q10DX002 (ip), vehicle: carboxymethylcellulose (CMC), higher = longer survival) 103 % of control; (endpoint: median survival time, dose: 50.0 mg/kg/injection, schedule: Q12DX002 (ip), vehicle: carboxymethylcellulose (CMC), higher = longer survival) 115 % of control; (endpoint: median survival time, dose: 60.0 mg/kg/injection, schedule: Q11DX002 (ip), vehicle: Klucel (hydroxypropylcellulose) (HPC), higher = longer survival) 53 % of control and 113 % of control. In addition, the T/C was 90 % of control (endpoint: median survival time, dose: 60.0 mg/kg/injection, schedule: Q11DX002 (oral), vehicle: Klucel (hydroxypropylcellulose) (HPC), higher = longer survival); 124 % of control (endpoint: median survival time, dose: 75.7 mg/kg/injection, schedule: Q01DX001 (ip), vehicle: other, higher = longer survival); 112 % of control (endpoint: median survival time, dose: 80.0 mg/kg/injection, schedule: Q01DX001 (ip), vehicle: Klucel (hydroxypropylcellulose) (HPC), higher = longer survival); 75 % of control (endpoint: median survival time, dose: 90.0 mg/kg/injection, schedule: Q11DX002 (oral), vehicle: Klucel (hydroxypropylcellulose) (HPC), higher = longer survival); 154 % of control (endpoint: median survival time, dose: 100.0 mg/kg/injection, schedule: Q01DX001 (ip), vehicle: saline with Tween-80, higher = longer survival); 110 % of control (endpoint: median survival time, dose: 160.0 mg/kg/injection, schedule: Q01DX001 (ip), vehicle: Klucel (hydroxypropylcellulose) (HPC), higher = longer survival). Also, the T/C runs as follows: (endpoint: median tumor weight (est.), dose: 4.0 mg/kg/injection, schedule: Q01DX009 (ip), vehicle: Klucel (hydroxypropylcellulose) (HPC), higher = larger tumour) 66 % of control; (endpoint: median tumor weight (est.), dose: 8.0 mg/kg/injection, schedule: Q01DX009 (ip), vehicle: Klucel (hydroxypropylcellulose) (HPC), higher = larger tumour) 46 % of control; (endpoint: median tumor weight (est.), dose: 12.5 mg/kg/injection, schedule: Q01DX001 (ip), vehicle: Klucel (hydroxypropylcellulose) (HPC), higher = larger tumour) 88 % of control; (endpoint: median tumor weight (est.), dose: 16.0 mg/kg/injection, schedule: Q01DX009 (ip), vehicle: Klucel (hydroxypropylcellulose) (HPC), higher = larger tumour) 3 % of control; (endpoint: median tumor weight (est.), dose: 19.0 mg/kg/injection, schedule: Q01DX001 (ip), vehicle: carboxymethylcellulose (CMC), higher = larger tumour) 72 % of control; (endpoint: median tumor weight (est.), dose: 25.0 mg/kg/injection, schedule: Q01DX001 (ip), vehicle: Klucel (hydroxypropylcellulose) (HPC), higher = larger tumour) 48 % of control. Moreover, the T/C is 46 % of control (endpoint: median tumor weight (est.), dose: 38.0 mg/kg/injection, schedule: Q01DX001 (ip), vehicle: carboxymethylcellulose (CMC), higher = larger tumour) and 34 % of control (endpoint: median tumor weight (est.), dose: 57.0 mg/kg/injection, schedule: Q01DX001 (ip), vehicle: carboxymethylcellulose (CMC), higher = larger tumour).

Regarding `O`, the T/C is, setting by setting: (endpoint: median survival time, dose: 100.0 mg/kg/injection, schedule: Q02DX009 (ip), vehicle: saline, higher = longer survival) 91 % of control; (endpoint: median survival time, dose: 200.0 mg/kg/injection, schedule: Q02DX009 (ip), vehicle: saline, higher = longer survival) 110 % of control; (endpoint: median survival time, dose: 600.0 mg/kg/injection, schedule: Q02DX009 (ip), vehicle: saline, higher = longer survival) 94 % of control.

For `C1CC[N-]CC1.C1CC[N-]CC1.C1CC[N-]CC1.C1CC[N-]CC1.[Cl][Co][Cl]`, the T/C (endpoint: mean tumor weight, dose: 15.0 mg/kg/injection, schedule: Q01DX011 (ip), vehicle: other, higher = larger tumour) was 63 % of control; the T/C (endpoint: mean tumor weight, dose: 30.0 mg/kg/injection, schedule: Q01DX011 (ip), vehicle: other, higher = larger tumour) is 68 % of control; the T/C (endpoint: mean tumor weight, dose: 60.0 mg/kg/injection, schedule: Q01DX011 (ip), vehicle: other, higher = larger tumour) is 56 % of control; the T/C (endpoint: median survival time, dose: 2.5 mg/kg/injection, schedule: Q01DX009 (ip), vehicle: saline, higher = longer survival) is 94 % of control; the T/C (endpoint: median survival time, dose: 10.0 mg/kg/injection, schedule: Q01DX009 (ip), vehicle: saline, higher = longer survival) is 105 % of control; the T/C (endpoint: median survival time, dose: 20.0 mg/kg/injection, schedule: Q01DX009 (ip), vehicle: saline, higher = longer survival) is 95 % of control. The T/C (endpoint: median survival time, dose: 40.0 mg/kg/injection, schedule: Q01DX009 (ip), vehicle: saline, higher = longer survival) is 93 % of control.

Turning to `CCC(C)n1ncc2c(N(C)C)ncnc21` (centres undefined), the T/C (endpoint: mean tumor weight, dose: 32.5 mg/kg/injection, schedule: Q01DX011 (ip), vehicle: carboxymethylcellulose (CMC), higher = larger tumour) is 76 % of control.

For `C=C(C)C1CC=C(C)CC1` (centres undefined), the T/C was 65 % of control (endpoint: mean tumor weight, dose: 100.0 mg/kg/injection, schedule: Q01DX011 (ip), vehicle: carboxymethylcellulose (CMC), higher = larger tumour) and 43 % of control (endpoint: mean tumor weight, dose: 200.0 mg/kg/injection, schedule: Q01DX011 (ip), vehicle: carboxymethylcellulose (CMC), higher = larger tumour).

With `CC(=O)[O][Hg][c]1c(C)c(C)c(C)c(C)c1C`, the T/C is 93 % of control (endpoint: median survival time, dose: 0.62 mg/kg/injection, schedule: Q01DX009 (ip), vehicle: Klucel (hydroxypropylcellulose) (HPC), higher = longer survival); 93 % of control (endpoint: median survival time, dose: 1.25 mg/kg/injection, schedule: Q01DX009 (ip), vehicle: Klucel (hydroxypropylcellulose) (HPC), higher = longer survival); 100 % of control (endpoint: median survival time, dose: 2.5 mg/kg/injection, schedule: Q01DX009 (ip), vehicle: Klucel (hydroxypropylcellulose) (HPC), higher = longer survival); 105 % of control (endpoint: median survival time, dose: 5.0 mg/kg/injection, schedule: Q01DX009 (ip), vehicle: Klucel (hydroxypropylcellulose) (HPC), higher = longer survival); 92 % of control (endpoint: median survival time, dose: 6.0 mg/kg/injection, schedule: Q01DX009 (ip), vehicle: Klucel (hydroxypropylcellulose) (HPC), higher = longer survival); 92 % of control (endpoint: median survival time, dose: 6.25 mg/kg/injection, schedule: Q01DX009 (ip), vehicle: Klucel (hydroxypropylcellulose) (HPC), higher = longer survival).
